Results reported in the supplement of paper PMC6965134.
± gives the standard deviation of the averaged measurements.

Assay: TIMS collisional cross section (CCS, N2) of the lipid ion; higher = larger ion cross section
Details: ionization mode: negative, one isomer drawn
Description: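 Lipid extracts of human plasma (NIST SRM 1950), mouse liver or HeLa cells were separated by nanoflow C18 LC (30 min gradient) and analysed by TIMS-PASEF on a timsTOF Pro. Ion mobility was calibrated with the Agilent tuning mix (negative mode ions) and converted to collisional cross sections (Mason–Schamp, N2).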

[1] = sample type: Human plasma, ion (formula + adduct): [C43H74NO8P-H] 1-
[2] = sample type: Mouse Liver, ion (formula + adduct): [C43H74NO8P-H] 1-
[3] = sample type: Mouse Liver, ion (formula + adduct): [C45H82NO8P-H] 1-
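Further: lipids from MTBE extraction, five replicate injections per sample, 100 ms TIMS ramp spanning 0.6–1.95 Vs/cm², lipid identity assigned from PASEF MS/MS spectra.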

## CCCCC/C=C\C/C=C\CCCCCCCC(=O)OCC(COP(=O)(O)OCCN)OC(=O)CCCCCCC/C=C\C/C=C\CCCCC (stereo not given) [PE 18:2_18:2]
Sample type: Human plasma, ion (formula + adduct): [C41H74NO8P-H] 1-
  TIMS collisional cross section: 268.8 Å²
Sample type: Mouse Liver, ion (formula + adduct): [C41H74NO8P-H] 1-
  TIMS collisional cross section: 268.8 Å²

## CC/C=C\C/C=C\C/C=C\C/C=C\CCCCC(=O)OC[C@H](COP(=O)(O)OCCN)OC(=O)CCCCCCCCCCCCCCCCC [PE 18:4_18:0@]
Sample type: Human plasma, ion (formula + adduct): [C41H74NO8P+AcO] 1-
  TIMS collisional cross section: 282.4 Å²

## CCCCC/C=C\C/C=C\C/C=C\C/C=C\CCCC(=O)O[C@H](COC(=O)CCCCCCCCCCCCCCCCCC)COP(=O)(O)OCCN [PE 19:0_20:4]
Sample type: Mouse Liver, ion (formula + adduct): [C44H80NO8P-H] 1-
  TIMS collisional cross section: 279.6 Å²

## CC/C=C\C/C=C\C/C=C\C/C=C\C/C=C\C/C=C\CCC(=O)O[C@H](COC(=O)CCCCCCCCC/C=C\CCCCCCCC)COP(=O)(O)OCCN [PE 20:1_22:6]
Sample type: Mouse Liver, ion (formula + adduct): [C47H80NO8P-H] 1-
  TIMS collisional cross section: 285.8 Å²

## CC/C=C\C/C=C\C/C=C\C/C=C\C/C=C\C/C=C\CCC(=O)O[C@H](COC(=O)CCCCCCCCC/C=C\C/C=C\CCCCC)COP(=O)(O)OCCN [PE 20:2_22:6]
Sample type: Mouse Liver, ion (formula + adduct): [C47H78NO8P-H] 1-
  TIMS collisional cross section: 283.4 Å²

## CCCCC/C=C\C/C=C\C/C=C\CCCCCCC(=O)OC[C@H](COP(=O)(O)OCCN)OC(=O)CCCCCCCCCCCCCCC [PE 20:3_16:0]
Sample type: Mouse Liver, ion (formula + adduct): [C41H76NO8P-H] 1-
  TIMS collisional cross section: 271.1 Å²

## CCCCC/C=C\C/C=C\C/C=C\CCCCCCC(=O)OC[C@H](COP(=O)(O)OCCN)OC(=O)CCCCCCCCCCCCCCCCC [PE 20:3_18:0]
Sample type: Mouse Liver, ion (formula + adduct): [C43H80NO8P-H] 1-
  TIMS collisional cross section: 277.3 Å²

## CCCCC/C=C\C/C=C\C/C=C\C/C=C\CCCC(=O)OC[C@H](COP(=O)(O)OCCN)OC(=O)CCCCCCCCCCCCC [PE 20:4_14:0]
Sample type: Mouse Liver, ion (formula + adduct): [C39H70NO8P-H] 1-
  TIMS collisional cross section: 263.7 Å²

## CCCCC/C=C\C/C=C\C/C=C\C/C=C\CCCC(=O)OC[C@H](COP(=O)(O)OCCN)OC(=O)CCCCCCC/C=C\C/C=C\CCCCC [PE 20:4_18:2@]
[1]
  TIMS collisional cross section: 275.6 ± 3.2 Å²

## CCCCC/C=C\C/C=C\C/C=C\C/C=C\CCCC(=O)OC[C@H](COP(=O)(O)OCCN)OC(=O)CCCCCCC/C=C\C/C=C\CCCCC [PE 20:4_18:2]
[2]
  TIMS collisional cross section: 272.7 Å²

## CCCCC/C=C\C/C=C\C/C=C\C/C=C\CCCC(=O)OC[C@H](COP(=O)(O)OCCN)OC(=O)CCCCCCCCCCCCCCCCCCC [PE 20:4_20:0]
[3]
  TIMS collisional cross section: 281.8 Å²

## CCCCC/C=C\C/C=C\C/C=C\C/C=C\CCCC(=O)OC[C@H](COP(=O)(O)OCCN)OC(=O)CCCCCCCCCCCCCCCCCCCCC [PE 20:4_22:0]
Sample type: Mouse Liver, ion (formula + adduct): [C47H86NO8P-H] 1-
  TIMS collisional cross section: 288 Å²

## CC/C=C\C/C=C\C/C=C\C/C=C\C/C=C\C/C=C\CCC(=O)O[C@H](COC(=O)CCC/C=C\C/C=C\C/C=C\C/C=C\CCCCC)COP(=O)(O)OCCN [PE 20:4_22:6]
Sample type: Mouse Liver, ion (formula + adduct): [C47H74NO8P-H] 1-
  TIMS collisional cross section: 280.6 Å²

## CC/C=C\C/C=C\C/C=C\C/C=C\C/C=C\CCCC(=O)OC[C@H](COP(=O)(O)OCCN)OC(=O)CCCCCCCCCCCCCCCCC [PE 20:5@_18:0]
Sample type: Human plasma, ion (formula + adduct): [C43H76NO8P-H] 1-
  TIMS collisional cross section: 276.2 Å²

## CC/C=C\C/C=C\C/C=C\C/C=C\C/C=C\CCCC(=O)OC[C@H](COP(=O)(O)OCCN)OC(=O)CCCCCCCCCCCCCCC [PE 20:5_16:0]
Sample type: Human plasma, ion (formula + adduct): [C41H72NO8P-H] 1-
  TIMS collisional cross section: 269.4 Å²
Sample type: Mouse Liver, ion (formula + adduct): [C41H72NO8P-H] 1-
  TIMS collisional cross section: 269.4 Å²

## CC/C=C\C/C=C\C/C=C\C/C=C\C/C=C\CCCC(=O)OC[C@H](COP(=O)(O)OCCN)OC(=O)CCCCCCC/C=C\CCCCCCCC [PE 20:5_18:1]
[1]
  TIMS collisional cross section: 274.5 Å²
[2]
  TIMS collisional cross section: 273.9 Å²

## CCCCC/C=C\C/C=C\C/C=C\C/C=C\CCCCCC(=O)OC[C@H](COP(=O)(O)OCCN)OC(=O)CCCCCCCCCCCCCCCCC [PE 22:4_18:0]
Sample type: Human plasma, ion (formula + adduct): [C45H82NO8P-H] 1-
  TIMS collisional cross section: 283.6 Å²
[3]
  TIMS collisional cross section: 283 Å²

## CC/C=C\C/C=C\C/C=C\C/C=C\C/C=C\C/C=C\CCC(=O)OC[C@H](COP(=O)(O)OCCN)OC(=O)CCCCCCC/C=C\CCCCCCCC [PE 22:6@_18:1]
Sample type: Human plasma, ion (formula + adduct): [C45H76NO8P-H] 1-
  TIMS collisional cross section: 278.4 Å²

## CC/C=C\C/C=C\C/C=C\C/C=C\C/C=C\C/C=C\CCC(=O)OC[C@H](COP(=O)(O)OCCN)OC(=O)CCC/C=C\C/C=C\C/C=C\C/C=C\C/C=C\CC [PE 22:6@_20:5]
Sample type: Mouse Liver, ion (formula + adduct): [C47H72NO8P-H] 1-
  TIMS collisional cross section: 279.4 Å²

## CC/C=C\C/C=C\C/C=C\C/C=C\C/C=C\C/C=C\CCC(=O)OC[C@H](COP(=O)(O)OCCN)OC(=O)CCCCCCCCCCCCC [PE 22:6_14:0]
Sample type: Mouse Liver, ion (formula + adduct): [C41H70NO8P-H] 1-
  TIMS collisional cross section: 268.2 Å²

## CC/C=C\C/C=C\C/C=C\C/C=C\C/C=C\C/C=C\CCC(=O)OC[C@H](COP(=O)(O)OCCN)OC(=O)CCCCCCC/C=C\CCCCCC [PE 22:6_16:1]
Sample type: Mouse Liver, ion (formula + adduct): [C43H72NO8P-H] 1-
  TIMS collisional cross section: 272.7 Å²

## CC/C=C\C/C=C\C/C=C\C/C=C\C/C=C\C/C=C\CCC(=O)OC[C@H](COP(=O)(O)OCCN)OC(=O)CCCCCCC/C=C\CCCCCCCC [PE 22:6_18:1]
Sample type: Mouse Liver, ion (formula + adduct): [C45H76NO8P-H] 1-
  TIMS collisional cross section: 279.5 ± 0.85 Å²

## CC/C=C\C/C=C\C/C=C\C/C=C\C/C=C\C/C=C\CCC(=O)OC[C@H](COP(=O)(O)OCCN)OC(=O)CCCCCCC/C=C\C/C=C\CCCCC [PE 22:6_18:2]
Sample type: Mouse Liver, ion (formula + adduct): [C45H74NO8P-H] 1-
  TIMS collisional cross section: 276.6 Å²

## CC/C=C\C/C=C\C/C=C\C/C=C\C/C=C\C/C=C\CCC(=O)OC[C@H](COP(=O)(O)OCCN)OC(=O)CCCCCCCCCCCCCCCCCCC [PE 22:6_20:0]
Sample type: Mouse Liver, ion (formula + adduct): [C47H82NO8P-H] 1-
  TIMS collisional cross section: 287.5 Å²

## CC/C=C\C/C=C\C/C=C\C/C=C\C/C=C\C/C=C\CCC(=O)OC[C@H](COP(=O)(O)OCCN)OC(=O)CC/C=C\C/C=C\C/C=C\C/C=C\C/C=C\C/C=C\CC [PE 22:6_22:6]
Sample type: Mouse Liver, ion (formula + adduct): [C49H74NO8P-H] 1-
  TIMS collisional cross section: 283.9 Å²

## CC/C=C\C/C=C\C/C=C\C/C=C\C/C=C\CCCC(=O)O[C@H](COCCCCCCCCCCCCCCCC)COP(=O)(O)OCCN [PE O- 16:0@_20:5]
Sample type: Human plasma, ion (formula + adduct): [C41H74NO7P+AcO] 1-
  TIMS collisional cross section: 280.1 Å²

## CC/C=C\C/C=C\C/C=C\C/C=C\C/C=C\C/C=C\CCC(=O)O[C@H](COCCCCCCCCCCCCCCCC)COP(=O)(O)OCCN [PE O- 16:0@_22:6]
Sample type: Human plasma, ion (formula + adduct): [C43H76NO7P-H] 1-
  TIMS collisional cross section: 274 Å²
Sample type: Mouse Liver, ion (formula + adduct): [C43H76NO7P-H] 1-
  TIMS collisional cross section: 273.4 Å²

## CCCCCCCCCCCCCCCCCCOC[C@H](COP(=O)(O)OCCN)OC(=O)CCCCCCCCCCCCCC [PE O- 18:0@_15:0]
Sample type: Human plasma, ion (formula + adduct): [C38H78NO7P+AcO] 1-
  TIMS collisional cross section: 287.3 Å²

## CCCCCCC/C=C\CCCCCCCC(=O)O[C@H](COCCCCCCCCCCCCCCCCCC)COP(=O)(O)OCCN [PE O- 18:0@_17:1]
Sample type: Human plasma, ion (formula + adduct): [C40H80NO7P+AcO] 1-
  TIMS collisional cross section: 292.4 Å²

## CCCCCCCCCCCCCCCCCCOC[C@H](COP(=O)(O)OCCN)OC(=O)CCCCCCCCCCCCCCCCCC [PE O- 18:0@_19:0]
Sample type: Human plasma, ion (formula + adduct): [C42H86NO7P+AcO] 1-
  TIMS collisional cross section: 298 Å²

## CCCCCCCCCCCCCCCCCCOC[C@H](COP(=O)(O)OCCN)OC(=O)CCCCCCCCCCCCCCCC [PE O- 18:0_17:0]
Sample type: Mouse Liver, ion (formula + adduct): [C40H82NO7P-CH3] 1-
  TIMS collisional cross section: 267.9 Å²

## CCCCCCCCC/C=C\CCCCCCCC(=O)O[C@H](COCCCCCCCCCCCCCCCCCCCC)COP(=O)(O)OCCN [PE O- 20:0@_19:1]
Sample type: Human plasma, ion (formula + adduct): [C44H88NO7P+AcO] 1-
  TIMS collisional cross section: 303.7 Å²

## CCCCC/C=C\C/C=C\CCCCCCCC(=O)O[C@H](CO/C=C\CCCCCCCCCCCCCC)COP(=O)(O)OCCN [PE P- 16:0@_18:2]
Sample type: Human plasma, ion (formula + adduct): [C39H74NO7P-H] 1-
  TIMS collisional cross section: 265.6 Å²

## CC/C=C\C/C=C\C/C=C\C/C=C\CCCCC(=O)O[C@H](CO/C=C\CCCCCCCCCCCCCC)COP(=O)(O)OCCN [PE P- 16:0@_18:4]
Sample type: Human plasma, ion (formula + adduct): [C39H70NO7P+AcO] 1-
  TIMS collisional cross section: 275.7 Å²

## CCCCCCCC/C=C\CCCCCCCCCC(=O)O[C@H](CO/C=C\CCCCCCCCCCCCCC)COP(=O)(O)OCCN [PE P- 16:0@_20:1]
Sample type: Mouse Liver, ion (formula + adduct): [C41H80NO7P-H] 1-
  TIMS collisional cross section: 273.5 Å²
